# Measured values from US20240261356A1, “COMPOSITION CONTAINING ACANTHOPANAX EXTRACT AND GARCINIA CAMBOGIA EXTRACT OR COMPOUND ISOLATED THEREFROM AS ACTIVE INGREDIENT FOR PREVENTION OR TREATMENT OF LIVER DISEASE” (KOREA RESEARCH INSTITUTE OF BIOSCIENCE AND BIOTECHNOLOGY, priority 2021, published 2024).
# How the values were obtained:
# [1] = tested on: non-alcoholic steatohepatitis (NASH) animal models; test: AST in serum of non-alcoholic steatohepatitis (NASH) animal model; type: in vivo, C57bl/6J mice; conditions: NASH mice, 8 weeks, Chiisanogenin 50 mg/kg
# Protocol: (§1) 8-week-old male C57bl/6J mice were fed a NASH-inducing diet (#A06071302 diet) for 8 weeks, and, from the 9th week, single samples (i.e., Garcinia extract, Acanthopanax extract or Chiisanogenin) and a composite sample thereof were administered for 8 weeks, together with NASH dietary feed (#A06071302 diet). To verify the efficacy of each of the Garcinia extract (notified raw material, 60% HCA) and Chiisanogenin or their mixture at each non-clinical administration concentration by using a non-alcoholic steatohepatitis (NASH)-induced animal model, changes of aspartate aminotransferase (AST) and alanine aminotransferase (ALT), which are biomarkers of liver tissue damage, in the serum of the non-alcoholic steatohepatitis (NASH) C57bl/6J mouse models caused by feeding NASH-inducing dietary feed (#A06071302) were observed, and the results are shown in Tables 11 and 12, respectively. In addition, the results of observing changes of hydroxyproline, which is a biomarker of liver fibrosis, in liver tissues are shown in Table 13.
# HepG2 cells [2] = test: Cell viability (CCK-8) of fatty acid-induced non-alcoholic fatty liver cell model; type: cell-based, human; conditions: Table 6, Garcinia extract 0 + Chiisanogenin 6 μg/ml
# Protocol: The human liver-derived HepG2 cell line was purchased from American Type Culture Collection (ATCC, VA, USA). HepG2 cells were cultured at 37° C. in an incubator supplied with 5% carbon dioxide. For the cell culture, MEM (Gibco Cat No. 11095-098) medium containing 10% fetal bovine serum (FBS) and 1% antibiotics (Penicillin-streptomycin, Gibco) was used. HepG2 cells were seeded in a 96-well plate at 1×10^4 cells/well, and, after 24 hours, treated with 150 μM oleic acid (Sodium oleate, Sigma, USA) for 24 hours to increase intracellular fat accumulation. The drug treated group was treated 1 hour before being treated with oleic acid. […] After completion of the reaction, the plate was washed three times with PBS buffer, and, when only the minimum amount of PBS remained, the fluorescence was quantified by using a SpectraMax M4 microplate reader (Molecular Devices, USA). […]
# In the experimental conditions of the present invention, cell viability was determined by mixing 90 μl of medium with 10 μl of CCK-8 solution, adding 100 μl per well and reacting the mixture for at least 30 minutes to 1 hour, followed by measurement of the absorbance at 450 nm, as described in the CCK-8 (Dojindo) kit. The cell viability was calculated according to Equation 1 below, taking the negative control as 100%, and the results are shown in Tables 8 and 9 below.
# [3] = tested on: non-alcoholic steatohepatitis (NASH) animal models; test: ALT in serum of non-alcoholic steatohepatitis (NASH) animal model; type: in vivo, C57bl/6J mice; conditions: NASH mice, 8 weeks, Chiisanogenin 50 mg/kg
# Protocol: as §1
# HepG2 cells [4] = test: Fatty acid-induced intracellular fat accumulation (BODIPY fluorescence) in non-alcoholic fatty liver cell model; type: cell-based, human
# Protocol: The human liver-derived HepG2 cell line was purchased from American Type Culture Collection (ATCC, VA, USA). HepG2 cells were cultured at 37° C. in an incubator supplied with 5% carbon dioxide. For the cell culture, MEM (Gibco Cat No. 11095-098) medium containing 10% fetal bovine serum (FBS) and 1% antibiotics (Penicillin-streptomycin, Gibco) was used. HepG2 cells were seeded in a 96-well plate at 1×10^4 cells/well, and, after 24 hours, treated with 150 μM oleic acid (Sodium oleate, Sigma, USA) for 24 hours to increase intracellular fat accumulation. The drug treated group was treated 1 hour before being treated with oleic acid. Upon completion of the experiment, the cells were fixed with 4% formaldehyde for 10 minutes and washed twice with PBS buffer. A solution containing […] (Invitrogen Corporation, NY, USA) was added and cultured at room temperature for 30 minutes. At this time, the final concentration of the fluorescent dye BODIPY was 2 μg/ml. After completion of the reaction, the plate was washed three times with PBS buffer, and, when only the minimum amount of PBS remained, the fluorescence was quantified by using a SpectraMax M4 microplate reader (Molecular Devices, USA). At this time, the excitation wavelength was 485 nm, and the emission was 525 nm. The experiment was performed by blocking light with aluminum foil to allow in as little light as possible.
# [5] = tested on: non-alcoholic steatohepatitis (NASH) animal models; test: Fibrosis marker hydroxyproline in liver tissue of NASH animal model; type: in vivo, C57bl/6J mice; conditions: NASH mice, 8 weeks, Chiisanogenin 50 mg/kg
# Protocol: as §1
smiles,measurement,setting,value
C=C(C)[C@@H]1CC[C@]2(C(=O)O)CC[C@]3(C)[C@H](C[C@H]4OC(=O)C[C@@H](O)[C@]5(C)[C@@H]4[C@@]3(C)CC[C@H]5C(=C)C)[C@@H]12 [Chiisanogenin],"AST in serum (% relative to positive control group, mean ± deviation)",[1],97 ± 15.4%
same,"Inhibition rate (%, mean ± deviation)",[1]; serum AST,4 ± 19.8%
same,"Cell viability (%, mean ± deviation)",HepG2 cells [2],105 ± 13.7%
same,"ALT in serum (% relative to positive control group, mean ± deviation)",[3],89 ± 14.6%
same,"Inhibition rate (%, mean ± deviation)",[3]; serum ALT,12 ± 5.1%
same,inhibition at 6 µg/mL,"HepG2 cells [4]; Homo sapiens, HepG2, Table 4, fat accumulation, Garcinia extract 0 + Chiisanogenin 6 μg/ml, read-out: Inhibition rate (%)",80%
same,"TG (% relative to positive control group, mean ± deviation)","HepG2 cells [4]; Table 4, Garcinia extract 0 + Chiisanogenin 6 μg/ml",64 ± 7.9 %
same,"Hydroxyproline in liver tissues (% relative to positive control group, mean ± deviation)",[5],69 ± 28%
same,"Inhibition rate (%, mean ± deviation)",[5]; liver hydroxyproline,26 ± 11.9%
